ChEMBL document CHEMBL1145390, “Synthesis and preliminary biological characterization of new semisynthetic derivatives of ramoplanin” (J Med Chem, 2007)
Values after ≈ are worked out from the molar mass of the structure shown.

Key:
[1] = system: Enterococcus faecalis; experiment: Antibacterial activity against Enterococcus faecalis after 24 hrs by broth microdilution method; format: functional; conditions: read-out: MIC
[2] = system: Staphylococcus aureus; experiment: Antibacterial activity against Staphylococcus aureus Smith after 24 hrs by broth microdilution method; format: functional; conditions: read-out: MIC
[3] = system: Staphylococcus aureus; experiment: Antibacterial activity against methicillin-resistant Staphylococcus aureus clinical isolate after 24 hrs by broth microdilution method; format: functional; conditions: read-out: MIC
[4] = system: Staphylococcus aureus; experiment: Antibacterial activity against methicillin-resistant and vancomycin-intermediate resistant Staphylococcus aureus clinical isolate after 24 hrs by broth microdilution method; format: functional; conditions: read-out: MIC
[5] = system: Staphylococcus aureus; experiment: Antibacterial activity against vancomycin-intermediate resistant Staphylococcus aureus clinical isolate after 24 hrs by broth microdilution method; format: functional
[6] = system: Streptococcus pyogenes; experiment: Antibacterial activity against Streptococcus pyogenes C203 after 24 hrs by broth microdilution method; format: functional; conditions: C203, 24 h, read-out: MIC
[7] = system: Enterococcus faecium; experiment: Antibacterial activity against Enterococcus faecium after 24 hrs by broth microdilution method; format: functional; conditions: read-out: MIC
[8] = system: Enterococcus faecium; experiment: Antibacterial activity against vancomycin A-resistant Enterococcus faecium clinical isolate after 24 hrs by broth microdilution method; format: functional; conditions: read-out: MIC
[9] = system: Escherichia coli; experiment: Antibacterial activity against Escherichia coli SKF-12140 after 24 hrs by broth microdilution method; format: functional; conditions: read-out: MIC
[10] = system: Candida albicans; experiment: Antifungal activity against Candida albicans SKF-2270 after 24 hrs by broth microdilution method; format: functional; conditions: read-out: MIC
[11] = Toxicity assessed as hemolysis in erythrocytes at 1200 mg/L; format: cell-based, Erythrocyte; conditions: human, read-out: Activity
[12] = system: Staphylococcus aureus; experiment: Antibacterial activity against vancomycin-intermediate resistant Staphylococcus aureus clinical isolate in presence of 30% bovine serum after 24 hrs by broth microdilution method; format: functional
[13] = system: Staphylococcus aureus; experiment: Antibacterial activity against Staphylococcus aureus Smith in presence of 30% bovine serum after 24 hrs by broth microdilution method; format: functional
[14] = system: Enterococcus faecalis; experiment: Antibacterial activity against vancomycin-resistant Enterococcus faecalis in presence of 30% bovine serum after 24 hrs by broth microdilution method; format: functional
[15] = system: Enterococcus faecium; experiment: Antibacterial activity against vancomycin A-resistant Enterococcus faecium clinical isolate in presence of 30% bovine serum after 24 hrs by broth microdilution method; format: functional
[16] = Toxicity assessed as hemolysis in erythrocytes at 600 mg/L; format: cell-based, Erythrocyte; conditions: human, read-out: Activity
[17] = Toxicity assessed as hemolysis in erythrocytes at 300 mg/L; format: cell-based, Erythrocyte; conditions: human, read-out: Activity
[18] = system: Enterococcus faecalis; experiment: Antibacterial activity against vancomycin A-resistant Enterococcus faecalis after 24 hrs by broth microdilution method; format: functional; conditions: read-out: MIC
[19] = Toxicity assessed as hemolysis in erythrocytes at 180 mg/L; format: cell-based, Erythrocyte; conditions: human, erythrocytes; read-out: Activity
[20] = Toxicity assessed as hemolysis in erythrocytes at 90 mg/L; format: cell-based, Erythrocyte; conditions: human, erythrocytes; read-out: Activity
[21] = Toxicity assessed as hemolysis in erythrocytes at 400 mg/L; format: cell-based, Erythrocyte; conditions: human, read-out: Activity
[22] = Toxicity assessed as hemolysis in erythrocytes at 200 mg/L; format: cell-based, Erythrocyte; conditions: human, read-out: Activity
[23] = Toxicity assessed as hemolysis in erythrocytes at 100 mg/L; format: cell-based, Erythrocyte; conditions: human, read-out: Activity

Compound | MIC [1] | MIC [2] | MIC [3] | MIC [4] | MIC [5] | MIC [6] | MIC [7] | MIC [8] | MIC [9] | MIC [10] | hemolysis at 1200 mg/L [11] | MIC [12] | MIC [13] | MIC [14] | MIC [15] | hemolysis at 600 mg/L [16] | hemolysis at 300 mg/L [17] | MIC [18] | further results
Cc1cccc(C)c1CC(=O)N[C@@H](CC(N)=O)C(=O)NC[C@@H]1C(=O)N[C@H](c2ccc(O)cc2)C(=O)N[C@H](CCCN)C(=O)N[C@H](C(C)C)C(=O)N[C@@H](c2ccc(O)cc2)C(=O)N[C@H](c2ccc(O)cc2)C(=O)N[C@@H]([C@@H](C)O)C(=O)N[C@@H](Cc2ccccc2)C(=O)N[C@H](CCCN)C(=O)N[C@@H](c2ccc(O[C@H]3O[C@H](CO)[C@@H](O)[C@H](O)[C@@H]3O[C@H]3O[C@H](CO)[C@@H](O)[C@H](O)[C@@H]3O)cc2)C(=O)N[C@H]([C@@H](C)O)C(=O)N[C@@H](c2ccc(O)cc2)C(=O)NCC(=O)N[C@@H](CC(C)C)C(=O)N[C@H](C)C(=O)N[C@@H](c2ccc(O)c(Cl)c2)C(=O)O[C@@H]1C(N)=O | ≤ 0.125 mg/L | ≤ 0.125 mg/L | ≤ 0.125 mg/L | 1 mg/L (≈ 0.388 µM) | 0.25 mg/L (≈ 0.097 µM) | ≤ 0.125 mg/L | 0.5 mg/L (≈ 0.194 µM) | 0.25 mg/L (≈ 0.097 µM) | > 128 mg/L | > 128 mg/L | 43% | 2 mg/L | 0.5 mg/L | 1 mg/L | 4 mg/L | 13% | 0% | – | –
Cc1cc(C)cc(CC(=O)N[C@@H](CC(N)=O)C(=O)NC[C@@H]2C(=O)N[C@H](c3ccc(O)cc3)C(=O)N[C@H](CCCN)C(=O)N[C@H](C(C)C)C(=O)N[C@@H](c3ccc(O)cc3)C(=O)N[C@H](c3ccc(O)cc3)C(=O)N[C@@H]([C@@H](C)O)C(=O)N[C@@H](Cc3ccccc3)C(=O)N[C@H](CCCN)C(=O)N[C@@H](c3ccc(O[C@H]4O[C@H](CO)[C@@H](O)[C@H](O)[C@@H]4O[C@H]4O[C@H](CO)[C@@H](O)[C@H](O)[C@@H]4O)cc3)C(=O)N[C@H]([C@@H](C)O)C(=O)N[C@@H](c3ccc(O)cc3)C(=O)NCC(=O)N[C@@H](CC(C)C)C(=O)N[C@H](C)C(=O)N[C@@H](c3ccc(O)c(Cl)c3)C(=O)O[C@@H]2C(N)=O)c1 | ≤ 0.125 mg/L | ≤ 0.125 mg/L | ≤ 0.125 mg/L | 1 mg/L (≈ 0.388 µM) | 0.5 mg/L (≈ 0.194 µM) | ≤ 0.125 mg/L | 0.25 mg/L (≈ 0.097 µM) | ≤ 0.125 mg/L | > 128 mg/L | > 128 mg/L | 87% | 4 mg/L | 1 mg/L | 1 mg/L | 2 mg/L | 18% | 0% | – | –
CC(C)C[C@@H]1NC(=O)CNC(=O)[C@H](c2ccc(O)cc2)NC(=O)[C@@H]([C@@H](C)O)NC(=O)[C@H](c2ccc(O[C@H]3O[C@H](CO)[C@@H](O)[C@H](O)[C@@H]3O[C@H]3O[C@H](CO)[C@@H](O)[C@H](O)[C@@H]3O)cc2)NC(=O)[C@@H](CCCN)NC(=O)[C@H](Cc2ccccc2)NC(=O)[C@H]([C@@H](C)O)NC(=O)[C@@H](c2ccc(O)cc2)NC(=O)[C@H](c2ccc(O)cc2)NC(=O)[C@@H](C(C)C)NC(=O)[C@@H](CCCN)NC(=O)[C@@H](c2ccc(O)cc2)NC(=O)[C@@H](CNC(=O)[C@H](CC(N)=O)NC(=O)Cc2ccccc2[N+](=O)[O-])[C@@H](C(N)=O)OC(=O)[C@H](c2ccc(O)c(Cl)c2)NC(=O)[C@@H](C)NC1=O | 2 mg/L (≈ 0.771 µM) | 0.5 mg/L (≈ 0.193 µM) | 1 mg/L (≈ 0.386 µM) | 4 mg/L (≈ 1.54 µM) | 2 mg/L (≈ 0.771 µM) | ≤ 0.125 mg/L | 4 mg/L (≈ 1.54 µM) | 2 mg/L (≈ 0.771 µM) | > 128 mg/L | > 128 mg/L | 0% | 4 mg/L | 1 mg/L | 2 mg/L | 8 mg/L | 0% | 1% | 1 mg/L (≈ 0.386 µM) | –
CCc1ccccc1CC(=O)N[C@@H](CC(N)=O)C(=O)N[C@@H]1C(=O)N[C@H](c2ccc(O)cc2)C(=O)N[C@H](CCCN)C(=O)N[C@H]([C@@H](C)O)C(=O)N[C@@H](c2ccc(O)cc2)C(=O)N[C@H](c2ccc(O)cc2)C(=O)N[C@@H]([C@H](C)O)C(=O)N[C@@H](Cc2ccccc2)C(=O)N[C@H](CCCN)C(=O)N[C@@H](c2ccc(O[C@H]3O[C@H](CO)[C@@H](O)[C@H](O)[C@@H]3O[C@H]3O[C@H](CO)[C@@H](O)[C@H](O)[C@@H]3O)cc2)C(=O)N[C@H]([C@@H](C)O)C(=O)N[C@@H](c2ccc(O)cc2)C(=O)NCC(=O)N[C@@H](CC(C)C)C(=O)N[C@H](C)C(=O)N[C@@H](c2ccc(O)c(Cl)c2)C(=O)O[C@@H]1C(N)=O | – | – | – | – | – | – | – | – | – | – | 76% | – | – | – | – | 1% | 1% | – | –
CC(C)C[C@@H]1NC(=O)CNC(=O)[C@H](c2ccc(O)cc2)NC(=O)[C@@H]([C@@H](C)O)NC(=O)[C@H](c2ccc(O[C@H]3O[C@H](CO)[C@@H](O)[C@H](O)[C@@H]3O[C@H]3O[C@H](CO)[C@@H](O)[C@H](O)[C@@H]3O)cc2)NC(=O)[C@@H](CCCN)NC(=O)[C@H](Cc2ccccc2)NC(=O)[C@H]([C@@H](C)O)NC(=O)[C@@H](c2ccc(O)cc2)NC(=O)[C@H](c2ccc(O)cc2)NC(=O)[C@@H](C(C)C)NC(=O)[C@@H](CCCN)NC(=O)[C@@H](c2ccc(O)cc2)NC(=O)[C@@H](CNC(=O)[C@H](CC(N)=O)NC(=O)Cc2ccccc2)[C@@H](C(N)=O)OC(=O)[C@H](c2ccc(O)c(Cl)c2)NC(=O)[C@@H](C)NC1=O.Cl | 2 mg/L | 1 mg/L | 1 mg/L | 4 mg/L | 2 mg/L | – | 2 mg/L | 1 mg/L | > 128 mg/L | > 128 mg/L | – | 2 mg/L | 1 mg/L | 2 mg/L | 1 mg/L | – | – | 2 mg/L | hemolysis at 180 mg/L [19]: 0%; hemolysis at 90 mg/L [20]: 0%; hemolysis at 400 mg/L [21]: 2%; hemolysis at 200 mg/L [22]: 0%; hemolysis at 100 mg/L [23]: 3%
CC(C)C[C@@H]1NC(=O)CNC(=O)[C@H](c2ccc(O)cc2)NC(=O)[C@@H]([C@@H](C)O)NC(=O)[C@H](c2ccc(O[C@H]3O[C@H](CO)[C@@H](O)[C@H](O)[C@@H]3O[C@H]3O[C@H](CO)[C@@H](O)[C@H](O)[C@@H]3O)cc2)NC(=O)[C@@H](CCCN)NC(=O)[C@H](Cc2ccccc2)NC(=O)[C@H]([C@@H](C)O)NC(=O)[C@@H](c2ccc(O)cc2)NC(=O)[C@H](c2ccc(O)cc2)NC(=O)[C@@H](C(C)C)NC(=O)[C@@H](CCCN)NC(=O)[C@@H](c2ccc(O)cc2)NC(=O)[C@@H](CNC(=O)[C@H](CC(N)=O)NC(=O)Cc2ccccc2C(F)(F)F)[C@@H](C(N)=O)OC(=O)[C@H](c2ccc(O)c(Cl)c2)NC(=O)[C@@H](C)NC1=O | ≤ 0.125 mg/L | ≤ 0.125 mg/L | ≤ 0.125 mg/L | 2 mg/L (≈ 0.764 µM) | 1 mg/L (≈ 0.382 µM) | ≤ 0.125 mg/L | 0.5 mg/L (≈ 0.191 µM) | 0.25 mg/L (≈ 0.0956 µM) | > 128 mg/L | > 128 mg/L | 51% | 4 mg/L | 1 mg/L | 0.5 mg/L | 2 mg/L | 5% | 3% | – | –
CCCCCCCC(=O)N[C@@H](CC(N)=O)C(=O)NC[C@@H]1C(=O)N[C@H](c2ccc(O)cc2)C(=O)N[C@H](CCCN)C(=O)N[C@H](C(C)C)C(=O)N[C@@H](c2ccc(O)cc2)C(=O)N[C@H](c2ccc(O)cc2)C(=O)N[C@@H]([C@@H](C)O)C(=O)N[C@@H](Cc2ccccc2)C(=O)N[C@H](CCCN)C(=O)N[C@@H](c2ccc(O[C@H]3O[C@H](CO)[C@@H](O)[C@H](O)[C@@H]3O[C@H]3O[C@H](CO)[C@@H](O)[C@H](O)[C@@H]3O)cc2)C(=O)N[C@H]([C@@H](C)O)C(=O)N[C@@H](c2ccc(O)cc2)C(=O)NCC(=O)N[C@@H](CC(C)C)C(=O)N[C@H](C)C(=O)N[C@@H](c2ccc(O)c(Cl)c2)C(=O)O[C@@H]1C(N)=O.Cl | 0.125 mg/L | 0.125 mg/L | 0.25 mg/L | 2 mg/L | 1 mg/L | 0.06 mg/L | 0.125 mg/L | < 0.06 mg/L | > 128 mg/L | > 128 mg/L | – | 2 mg/L | 1 mg/L | 1 mg/L | 1 mg/L | – | – | 0.125 mg/L | hemolysis at 180 mg/L [19]: 16%; hemolysis at 90 mg/L [20]: 0%; hemolysis at 400 mg/L [21]: 59%; hemolysis at 200 mg/L [22]: 5%; hemolysis at 100 mg/L [23]: 0%
